Experiments:
IL-5 = experiment: Inhibition of IL-5 production by ConA stimulated mouse splenocytes; type: cell-based; details: 25 μM
Protocol: (§1) Spleen cell suspension was obtained from BALB/c mice and lymphocytes separated by gradient density centrifugation on Histopaque 1.083 on 400 g for 30 minutes. They were washed once in medium, counted and their number adjusted as 3×10^5/200 μL/well in 96 flat bottomed culture plate in RPMI supplemented with 10% fetal bovine serum. Cells were stimulated on cytokine production by adding concanavalinA (ConA) at 5 μg/mL final concentration. Unstimulated cells were cultured in medium alone. Stock solution was prepared out of testing compounds as 10 mM in DMSO. Final concentrations made in cell culture medium were tested when they had been added together with ConA. After 72 hours incubation period cell culture supernatants were collected. In each sample IL-4, IL-5, IL-10 and IFNγ were detected and quantified using enzyme linked immunosorbent assay (ELISA) specific for pointed cytokines (R&D Systems).
(§2) To calculate results, standard curve was made out of measured OD values for recombinant protein in known concentrations. Cytokine content in unknown samples was calculated out of OD values extrapolated from the standard curve.
(§3) Percentage of inhibition is calculated using formula:
(§4) % Inhibition=(1−cytokine concentration of sample/cytokine concentration of positive control)×100.

Human recombinant Lck = target: T1, Human recombinant Lck (Homo sapiens, UniProt P06239); experiment: Human protein tyrosine kinase, Lck, inhibition assay; type: biochemical; details: 10 μM
T1 construct: made in house; host or cells: Sf21 insect cells
T1 sequence (P06239 whole entry): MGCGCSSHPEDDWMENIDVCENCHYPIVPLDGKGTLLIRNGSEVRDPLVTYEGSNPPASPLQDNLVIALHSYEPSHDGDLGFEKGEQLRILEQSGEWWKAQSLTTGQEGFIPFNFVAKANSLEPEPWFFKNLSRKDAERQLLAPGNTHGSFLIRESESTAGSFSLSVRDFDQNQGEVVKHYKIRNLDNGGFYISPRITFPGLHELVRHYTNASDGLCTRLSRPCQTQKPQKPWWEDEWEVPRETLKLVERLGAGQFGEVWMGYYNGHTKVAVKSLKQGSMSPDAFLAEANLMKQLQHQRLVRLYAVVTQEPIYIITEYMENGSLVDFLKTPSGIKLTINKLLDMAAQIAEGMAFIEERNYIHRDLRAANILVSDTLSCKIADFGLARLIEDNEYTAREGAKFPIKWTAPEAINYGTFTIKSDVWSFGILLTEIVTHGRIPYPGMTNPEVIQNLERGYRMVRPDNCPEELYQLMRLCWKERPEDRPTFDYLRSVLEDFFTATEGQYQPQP
Protocol: (§5) All compounds were dissolved in dimethyl sulfoxide (DMSO). Final concentration of the DMSO in all tests was 1% (v/v). Inhibition in all tests is considered preferred if it exceeds 50% at 10 μM concentration (or less).
Human recombinant Lck is expressed in insect Sf21 expression system and purified. Substances are pre-incubated for 15 minutes at 25° C. in HEPES buffer containing ATP, pervanadate and magnesium. Substrate (poly Glu-Tyr) is added and incubated for 60 minutes at 25° C. Activity of the enzyme is measured using phosphotyrosine (p-Tyr) specific enzyme immunoassay and inhibition is calculated from the determination of the concentration of p-Tyr. Protein tyrosine kinase, Lck, is a protein tyrosine kinase which is abundantly expressed in T-lymphocytes and is essential for T-cell receptor signal transduction and thus activation of T-lymphocytes. Lck activation stimulates recruitment and activation of ZAP-70, which is essential for T-cell activation. Inhibitors of Lck act as immunoregulatory agents in various models. Lck is implicated in T-cell leukemias and inflammation.

Tachykinin NK2 receptor = target: T2, Tachykinin NK2 receptor (Homo sapiens, UniProt P21452); experiment: Human tachykinin NK2 receptor assay (SR-48968 competition); type: binding; details: 10 μM concentration; CHO-K1, competition with SR-48968
T2 construct: expressed in transfected cells; host or cells: CHO-K1
T2 sequence (P21452 1-398): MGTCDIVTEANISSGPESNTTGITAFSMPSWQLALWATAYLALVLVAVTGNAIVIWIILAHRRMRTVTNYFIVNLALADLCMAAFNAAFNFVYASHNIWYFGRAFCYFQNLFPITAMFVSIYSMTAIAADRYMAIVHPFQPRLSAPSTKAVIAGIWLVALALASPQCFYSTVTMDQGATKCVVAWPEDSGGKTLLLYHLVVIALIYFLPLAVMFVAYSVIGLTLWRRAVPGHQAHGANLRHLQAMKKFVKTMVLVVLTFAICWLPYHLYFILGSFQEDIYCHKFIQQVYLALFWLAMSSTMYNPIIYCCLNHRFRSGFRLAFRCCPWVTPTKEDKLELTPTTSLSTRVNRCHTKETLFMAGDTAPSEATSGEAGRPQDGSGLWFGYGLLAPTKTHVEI
Protocol: as §5
Tachykinin NK2 receptor is expressed in Chinese hamster ovary cell line, clone K1 (CHO-K1). Substances and radioactive competitor (tritium labelled SR-48968) are incubated with cells in HEPES/NaOH buffer for 90 minutes at 25° C. in the presence of manganese ions. Levels of the bound SR-48968 is measured by scintillation counting, and competition is calculated from the total amount of the bound SR-48968 in treated and control samples. Tachykinin receptors are involved in physiological and pathological processes of inflammation and pain. Tachykinin NK2 has been identified as a target for intervention in asthma, GI disease, irritable bowel syndrome and pancreatitis.

Human ERK1 = target: T3, Human ERK1 (Homo sapiens, UniProt P27361); experiment: Human protein serine/threonine kinase, ERK1, assay; type: biochemical; details: 10 μM
T3 construct: made in house; host or cells: Escherichia coli
T3 sequence (P27361 whole entry): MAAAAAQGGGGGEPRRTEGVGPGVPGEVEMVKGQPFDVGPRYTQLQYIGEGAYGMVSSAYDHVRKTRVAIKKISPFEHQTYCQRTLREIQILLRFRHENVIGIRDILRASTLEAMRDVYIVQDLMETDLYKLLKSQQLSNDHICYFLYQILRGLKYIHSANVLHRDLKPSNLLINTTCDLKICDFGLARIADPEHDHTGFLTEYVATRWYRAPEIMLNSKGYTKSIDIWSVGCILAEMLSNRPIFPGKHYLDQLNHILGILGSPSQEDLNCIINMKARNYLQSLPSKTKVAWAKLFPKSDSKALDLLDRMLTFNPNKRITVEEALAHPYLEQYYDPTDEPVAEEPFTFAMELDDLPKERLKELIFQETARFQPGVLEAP
Protocol: as §5
Human ERK1 is expressed in Escherichia coli and purified. Compounds are pre-incubated in MOPS/EGTA buffer with pervanadate, DTT and γ-[^32P]-ATP with recombinant enzyme for 15 minutes at 37° C. Substrate (purified myelin basic protein, MBP) is added, followed by incubation at 37° C. for 30 minutes. Enzyme activity is measured by quantitation of [^32P]-MBP and inhibition is calculated from specific radioactivity. ERK1 is a serine/threonine kinase activated in MAPK (mitogen activated kinase) pathway. ERK1 is implicated in a high proportion of human cancers, including Hodgkin disease. ERK1 is involved in processes of cell growth, division and inflammation.

IL-10 = experiment: Inhibition of IL-10 production by ConA stimulated mouse splenocytes; type: cell-based; details: 25 μM
Protocol: as §1, §2, §3, §4

## CC(=O)C(c1c(O)c2cccc(C(C)C)c2oc1=O)c1c(O)c2cccc(C(C)C)c2oc1=O [Example 19]
IL-5
  inhibition of IL-5 production: significantly inhibited
Human recombinant Lck
  inhibition of human Lck activity: significantly inhibited
Tachykinin NK2 receptor
  inhibition of NK2 activity: significant inhibition
Human ERK1
  inhibition of human ERK1 activity: significantly inhibited

## CC(C)c1cccc2c(O)c(C(CO)c3c(O)c4cccc(C(C)C)c4oc3=O)c(=O)oc12 [Example 30]
IL-5
  inhibition of IL-5 production: significantly inhibited
IL-10
  inhibition of IL-10 production: significantly inhibited

## CC(C)c1cccc2c(O)c(C(C(=O)OCCO)c3c(O)c4cccc(C(C)C)c4oc3=O)c(=O)oc12 [Example 50]
Tachykinin NK2 receptor
  inhibition of NK2 activity: significant inhibition
